The subject of one data set is Rhodotorula glutinis. Nature of the data set: Antifungal activity against Rhodotorula glutinis assessed as growth inhibition at 50 ug/ml after 24 to 72 hr by broth dilution method. In kind it is functional, organism-based. Background: In broth dilution the organism is exposed to a series of concentrations in liquid medium.
The test system of data set [1] is Meyerozyma guilliermondii. In words: Antifungal activity against Meyerozyma guilliermondii assessed as growth inhibition at 50 ug/ml after 24 to 72 hr by broth dilution method. In kind it is functional, organism-based.
A short description of data set [2]: Toxicity against Artemia salina (brine shrimp) larvae after 24 hr. The settings on record: in vivo. The format is organism-based.
Data set [3] has as its system Penicillium brevicompactum. In words: Antifungal activity against Penicillium brevicompactum Dierckx ITEM-449 after 72 hr by broth dilution method. In kind it is functional. The settings on record: Dierckx ITEM-449, 72 h.
For data set [4], the system named is Penicillium brevicompactum. In words: Antifungal activity against Penicillium brevicompactum Dierckx ITEM-449 after 48 hr by broth dilution method. The format is functional. The settings on record: Dierckx ITEM-449, 48 h.
Data set [5] relates to Aspergillus parasiticus. In words: Antifungal activity against Aspergillus parasiticus Speare ITEM-11 after 24 hr by broth dilution method. The settings on record: Speare ITEM-11, 24 h. The format is functional.
The subject of data set [6] is Botrytis cinerea. In words: Antifungal activity against Botryotinia fuckeliana ITEM-966 after 24 hr by broth dilution method. In kind it is functional. The settings on record: ITEM-966, 24 h.
Data set [7] relates to Aspergillus parasiticus. Nature of the data set: Antifungal activity against Aspergillus parasiticus Speare ITEM-11 after 72 hr by broth dilution method. The format is functional. The settings on record: Speare ITEM-11, 72 h.
The test system of data set [8] is Botrytis cinerea. Nature of the data set: Antifungal activity against Botryotinia fuckeliana ITEM-966 after 48 hr by broth dilution method. The format is functional. The settings on record: ITEM-966, 48 h.
For data set [9], the system named is Aspergillus parasiticus. In words: Antifungal activity against Aspergillus parasiticus Speare ITEM-11 after 48 hr by broth dilution method. The format is functional. The settings on record: Speare ITEM-11, 48 h.
Data set [10] deals with Botrytis cinerea. Nature of the data set: Antifungal activity against Botryotinia fuckeliana ITEM-966 after 72 hr by broth dilution method. The format is functional. The settings on record: ITEM-966, 72 h.
For data set [11], the system named is Penicillium brevicompactum. In words: Antifungal activity against Penicillium brevicompactum Dierckx ITEM-449 after 24 hr by broth dilution method. In kind it is functional. The settings on record: Dierckx ITEM-449, 24 h.

Values after ≈ are worked out from the molar mass of the structure shown. Active and inactive are the calls of the source. No cut-off for these calls is given here. Bounds are passed on as bounds.

On to `CCCCCCC(C)C/C(C)=C\C(/C=C(C)/C=C/C(OC(C)=O)C(C)(C)c1cc(OC(C)=O)c([C@@H]2O[C@H](COC(C)=O)C[C@H](OC(C)=O)[C@H]2OC(C)=O)c(=O)o1)COC(C)=O` (stereo partly specified), for which the “growth inhibition (GI)” value (in the data set on Rhodotorula glutinis; in [1]) was “inactive” in each case. Besides, the median lethal concentration (LC50) (as a rule, the concentration lethal to half of the exposed cells or organisms) at 24 h in data set [2] stood at 85.6 µM.
For the molecule `Nc1c(Cl)cc([N+](=O)[O-])cc1Cl` [ALLISAN], the minimal inhibitory concentration (MIC) (in general, the lowest concentration that inhibits growth of the organism) in data set [3] is > 25 µg/mL; in data set [4] it was 25 µg/mL (≈ 121 µM); in the data set with Aspergillus parasiticus [5], > 25 µg/mL; in the data set on Botrytis cinerea [6] it was 3.12 µg/mL (≈ 15.1 µM); in the data set with Aspergillus parasiticus [7], > 25 µg/mL; with Botrytis cinerea [8], 6.25 µg/mL (≈ 30.2 µM). For the same molecule, the minimum inhibitory concentration (MIC) is > 25 µg/mL in the data set on Aspergillus parasiticus [9], 6.25 µg/mL (≈ 30.2 µM) with Botrytis cinerea [10] and 12.5 µg/mL (≈ 60.4 µM) in [11].
With `CCCCNC(=O)n1c(NC(=O)OC)nc2ccccc21` [BENOMYL], the minimal inhibitory concentration (MIC) in data set [3] is > 25 µg/mL; in data set [4], > 25 µg/mL; in the data set with Aspergillus parasiticus [5] it was > 25 µg/mL; in the data set on Botrytis cinerea [6] it was 0.19 µg/mL (≈ 0.654 µM); against Aspergillus parasiticus [7] it was > 25 µg/mL; in the data set with Botrytis cinerea [8] it was 0.19 µg/mL (≈ 0.654 µM). In addition, the results for the minimal inhibitory concentration (MIC) (in the data set on Aspergillus parasiticus [9]; in the data set on Botrytis cinerea [10]; in data set [11]) were > 25 µg/mL, 0.19 µg/mL (≈ 0.654 µM) and > 25 µg/mL, respectively.
Consider `CCCCCCC(C)C/C(C)=C\C(/C=C(C)/C=C/C(O)C(C)(C)c1cc(O)c([C@@H]2O[C@H](CO)C[C@H](O)[C@H]2O)c(=O)o1)CO` (stereo partly specified) [Fusapyrone], for which the MIC in data set [3] amounted to 6.25 µg/mL (≈ 10.3 µM); in [4], 3.12 µg/mL (≈ 5.14 µM); against Aspergillus parasiticus [5], 6.25 µg/mL (≈ 10.3 µM); against Botrytis cinerea [6] it was 1.56 µg/mL (≈ 2.57 µM); in the data set on Aspergillus parasiticus [7], 12.5 µg/mL (≈ 20.6 µM); in the data set with Botrytis cinerea [8], 3.12 µg/mL (≈ 5.14 µM). For the same molecule, the values for the MIC (against Aspergillus parasiticus [9]; with Botrytis cinerea [10]; in data set [11]) were 6.25 µg/mL (≈ 10.3 µM), 6.25 µg/mL (≈ 10.3 µM) and 0.78 µg/mL (≈ 1.29 µM), respectively. The “growth inhibition (GI)” value (in the data set on Rhodotorula glutinis; in [1]) was “inactive” in each case. Besides, the LC50 at 24 h in data set [2] is > 200 µM.
Turning to `CCCCCCC(C)CC(C)CC(CO)CC(C)CCC(O)C(C)(C)c1cc(O)c([C@@H]2O[C@H](CO)C[C@H](O)[C@H]2O)c(=O)o1` (stereo partly specified), the “growth inhibition (GI)” value (in the data set with Rhodotorula glutinis; in data set [1]) was “inactive” throughout. Also, the MIC against Botrytis cinerea [6], against Botrytis cinerea [8] and in the data set with Botrytis cinerea [10] was 50 µg/mL (≈ 81.6 µM) in each case.
As to `CCCCCCC(C)C/C(C)=C\C(/C=C(C)/C=C/C(O)C(C)(C)c1cc(OC)c([C@@H]2O[C@H](CO)C[C@H](O)[C@H]2O)c(=O)o1)CO` (stereo partly specified), the “growth inhibition (GI)” value (with Rhodotorula glutinis; in [1]) was “inactive” throughout. Further, the figures for the MIC against Botrytis cinerea [6], with Botrytis cinerea [8] and in the data set with Botrytis cinerea [10] were 25 µg/mL (≈ 40.3 µM), 50 µg/mL (≈ 80.5 µM) and 50 µg/mL (≈ 80.5 µM), respectively.
As to `CCCCCCC(C)C/C(C)=C\C(/C=C(C)/C=C/C(OC(C)=O)C(C)(C)c1cc(=O)c([C@@H]2O[C@H](COC(C)=O)C[C@H](OC(C)=O)[C@H]2OC(C)=O)c(OC)o1)COC(C)=O` (stereo partly specified), the “growth inhibition (GI)” value (with Rhodotorula glutinis; in data set [1]) was “inactive” throughout. In [2], this molecule gave a median lethal concentration (LC50) at 24 h of 51.9 µM.
For the molecule `CCCCCCC(C)C/C(C)=C\C(CO)CC(C)CCC(O)C(C)(C)c1cc(O)c([C@@H]2O[C@H](CO)C[C@H](O)[C@H]2O)c(=O)o1` (stereo partly specified), the “growth inhibition (GI)” value (in the data set on Rhodotorula glutinis; in data set [1]) was “inactive” in each case. The minimum inhibitory concentration (MIC) in the data set with Botrytis cinerea [6], against Botrytis cinerea [8] and in the data set with Botrytis cinerea [10] was 50 µg/mL (≈ 81.9 µM) in each case.
`CCCCCCC(C)C/C(C)=C\C(/C=C(C)/C=C/C(OC(C)=O)C(C)(C)c1cc(OC)c([C@@H]2O[C@H](COC(C)=O)C[C@H](OC(C)=O)[C@H]2OC(C)=O)c(=O)o1)COC(C)=O` (stereo partly specified): the “growth inhibition (GI)” value (in the data set with Rhodotorula glutinis; in [1]) was “inactive” each time. Moreover, the LC50 at 24 h in [2] came to 46.1 µM.
As for `CCCCCCC(C)C/C(C)=C\C(/C=C(C)/C=C/C(O)C(C)(C)c1cc(O)c(CCO)c(=O)o1)CO` (stereo unspecified), the “growth inhibition (GI)” value (in the data set on Rhodotorula glutinis; in data set [1]) was “inactive” each time.
As for `CCCCCCC(C)C/C(C)=C\C(C)/C=C(C)/C=C/C(O)C(C)(C)c1cc(O)c([C@@H]2O[C@H](CO)C[C@H](O)[C@H]2O)c(=O)o1` (stereo partly specified) [DEOXYNEOFUSAPYRONE], the minimum inhibitory concentration (MIC) in data set [3] was found to be 1.56 µg/mL (≈ 2.64 µM); in data set [4] it was 1.56 µg/mL (≈ 2.64 µM); with Aspergillus parasiticus [5], 0.78 µg/mL (≈ 1.32 µM); against Botrytis cinerea [6], 0.78 µg/mL (≈ 1.32 µM); with Aspergillus parasiticus [7], 0.78 µg/mL (≈ 1.32 µM); in the data set with Botrytis cinerea [8], 1.56 µg/mL (≈ 2.64 µM). The MIC was determined as 0.78 µg/mL (≈ 1.32 µM) against Aspergillus parasiticus [9], 1.56 µg/mL (≈ 2.64 µM) against Botrytis cinerea [10] and 0.78 µg/mL (≈ 1.32 µM) in data set [11]. For the same molecule, the “growth inhibition (GI)” value (in the data set with Rhodotorula glutinis; in [1]) was “inactive” in each case. In data set [2], this molecule registered an LC50 at 24 h of 37.1 µM.
Regarding `CCCCCCC(C)C/C(C)=C\C(C)/C=C(C)/C=C/C(OC(C)=O)C(C)(C)c1cc(OC(C)=O)c([C@@H]2O[C@H](COC(C)=O)C[C@H](OC(C)=O)[C@H]2OC(C)=O)c(=O)o1` (stereo partly specified), the “growth inhibition (GI)” value (with Rhodotorula glutinis; in data set [1]) was “inactive” each time. For the same molecule, the LC50 at 24 h in data set [2] was 39.7 µM.

(Values after ChEMBL document CHEMBL3044782, “Structure-activity relationships of derivatives of fusapyrone, an antifungal metabolite of Fusarium semitectum” (J Agric Food Chem, 2004).)
